Results as given in patent US20060069132A1, “Azolecarboxamide herbicides” (priority 2004, published 2006).

Tests used:
Experiment in all cases: Test E pre-/postemergence herbicide test
Conditions in all cases: Preemergence
goosegrass = type: in vivo, Eleusine indica
Procedure, shortened: (§1)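 Postemergence treatment targeted plants at the 1- to 4-leaf stage (2–18 cm), alongside preemergence treatment of planted seed; both used a non-phytotoxic solvent mixture with surfactant. Visual ratings, 0 = no effect to 100 = complete control, were taken 12 to 14 days later.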

annual bluegrass = type: in vivo, Poa annua
Procedure, shortened: as §1

bermudagrass = type: in vivo, Cynodon dactylon
Procedure, shortened: as §1

green foxtail = type: in vivo, Setaria viridis
Procedure, shortened: as §1

common sowthistle = type: in vivo, Sonchus oleraceous
Procedure, shortened: as §1

barnyardgrass = type: in vivo, Echinochloa crus-galli
Procedure, shortened: as §1

large crabgrass = type: in vivo, Digitaria sanguinalis
Procedure, shortened: as §1

quackgrass = type: in vivo, Elytrigia repens
Procedure, shortened: as §1

prickly sida = type: in vivo, Sida spinosa
Procedure, shortened: as §1

Surinam grass = type: in vivo, Urochloa decumbens
Procedure, shortened: as §1

johnsongrass = type: in vivo, Sorghum halepense
Procedure, shortened: as §1

mustard = type: in vivo, Brassica nigra
Procedure, shortened: as §1

common ragweed = type: in vivo, Ambrosia elatior
Procedure, shortened: as §1

downy bromegrass = type: in vivo, Bromus tectorum
Procedure, shortened: as §1

Russian thistle = type: in vivo, Salsola kali
Procedure, shortened: as §1

common groundsel = type: in vivo, Senecio vulgaris
Procedure, shortened: as §1

common purslane = type: in vivo, Portulaca oleracea
Procedure, shortened: as §1

[1] = 250 g ai/ha, scale 0 (no effect) to 100 (complete control)
[2] = 500 g ai/ha, scale 0 (no effect) to 100 (complete control)

Cc1nn(C(C)(C)C)nc1C(=O)Nc1cccc(C(=O)N(C)C)c1 [Compound 391]
10: Plant response rating, Bromegrass, Downy (downy bromegrass; 62 g ai/ha, scale 0 to 100)
50: Plant response rating, Sowthistle (common sowthistle; 62 g ai/ha, scale 0 to 100) | Plant response rating, Barnyardgrass (barnyardgrass; 62 g ai/ha, scale 0 to 100) | Plant response rating, Prickly Sida (prickly sida; 62 g ai/ha, scale 0 to 100) | Plant response rating, Black Mustard (mustard; 62 g ai/ha, scale 0 to 100) | Plant response rating, Ragweed (common ragweed; 62 g ai/ha, scale 0 to 100) | Plant response rating, Purslane (common purslane; 62 g ai/ha, scale 0 to 100)
60: Plant response rating, Foxtail, Green (green foxtail; 62 g ai/ha, scale 0 to 100) | Plant response rating, Crabgrass, Large (large crabgrass; 62 g ai/ha, scale 0 to 100) | Plant response rating, Johnsongrass (johnsongrass; 125 g ai/ha, scale 0 to 100)
100: Plant response rating, Foxtail, Green (green foxtail; [2]) | Plant response rating, Sowthistle (common sowthistle; [1]) | Plant response rating, Sowthistle (common sowthistle; [2]) | Plant response rating, Barnyardgrass (barnyardgrass; 125 g ai/ha, scale 0 to 100) | Plant response rating, Barnyardgrass (barnyardgrass; [1]) | Plant response rating, Barnyardgrass (barnyardgrass; [2]) | Plant response rating, Prickly Sida (prickly sida; 125 g ai/ha, scale 0 to 100) | Plant response rating, Prickly Sida (prickly sida; [1]) | Plant response rating, Prickly Sida (prickly sida; [2]) | Plant response rating, Surinam Grass (Surinam grass; [2]) | Plant response rating, Johnsongrass (johnsongrass; [2]) | Plant response rating, Black Mustard (mustard; [1]) | Plant response rating, Black Mustard (mustard; [2]) | Plant response rating, Ragweed (common ragweed; [2]) | Plant response rating, Thistle (Russian thistle; 125 g ai/ha, scale 0 to 100) | Plant response rating, Thistle (Russian thistle; [2]) | Plant response rating, Groundsel (common groundsel; [1]) | Plant response rating, Groundsel (common groundsel; [2]) | Plant response rating, Purslane (common purslane; [1]) | Plant response rating, Purslane (common purslane; [2])
80: Plant response rating, Goosegrass (goosegrass; 125 g ai/ha, scale 0 to 100) | Plant response rating, Foxtail, Green (green foxtail; 125 g ai/ha, scale 0 to 100) | Plant response rating, Black Mustard (mustard; 125 g ai/ha, scale 0 to 100)
70: Plant response rating, Surinam Grass (Surinam grass; 125 g ai/ha, scale 0 to 100)
90: Plant response rating, Goosegrass (goosegrass; [1]) | Plant response rating, Bermudagrass (bermudagrass; 125 g ai/ha, scale 0 to 100) | Plant response rating, Quackgrass (quackgrass; 125 g ai/ha, scale 0 to 100)
30: Plant response rating, Goosegrass (goosegrass; 62 g ai/ha, scale 0 to 100) | Plant response rating, Bromegrass, Downy (downy bromegrass; 125 g ai/ha, scale 0 to 100)
95: Plant response rating, Goosegrass (goosegrass; [2]) | Plant response rating, Bluegrass (annual bluegrass; 62 g ai/ha, scale 0 to 100) | Plant response rating, Bluegrass (annual bluegrass; 125 g ai/ha, scale 0 to 100) | Plant response rating, Bluegrass (annual bluegrass; [1]) | Plant response rating, Bluegrass (annual bluegrass; [2]) | Plant response rating, Bermudagrass (bermudagrass; [1]) | Plant response rating, Bermudagrass (bermudagrass; [2]) | Plant response rating, Foxtail, Green (green foxtail; [1]) | Plant response rating, Crabgrass, Large (large crabgrass; 125 g ai/ha, scale 0 to 100) | Plant response rating, Crabgrass, Large (large crabgrass; [1]) | Plant response rating, Crabgrass, Large (large crabgrass; [2]) | Plant response rating, Quackgrass (quackgrass; [1]) | Plant response rating, Quackgrass (quackgrass; [2]) | Plant response rating, Ragweed (common ragweed; [1]) | Plant response rating, Bromegrass, Downy (downy bromegrass; [1]) | Plant response rating, Bromegrass, Downy (downy bromegrass; [2]) | Plant response rating, Groundsel (common groundsel; 125 g ai/ha, scale 0 to 100) | Plant response rating, Purslane (common purslane; 125 g ai/ha, scale 0 to 100)
40: Plant response rating, Quackgrass (quackgrass; 62 g ai/ha, scale 0 to 100) | Plant response rating, Johnsongrass (johnsongrass; 62 g ai/ha, scale 0 to 100)
85: Plant response rating, Bermudagrass (bermudagrass; 62 g ai/ha, scale 0 to 100) | Plant response rating, Johnsongrass (johnsongrass; [1])
75: Plant response rating, Sowthistle (common sowthistle; 125 g ai/ha, scale 0 to 100) | Plant response rating, Ragweed (common ragweed; 125 g ai/ha, scale 0 to 100)
